This experiment relates to normal human dermal fibroblasts (NHDF). Nature of the experiment: MTT cell proliferation assay in fibroblasts pre-aged with H2O2. As to conditions: EGF 20 ng/ml positive control, after 3 hours H2O2 (500 μM). Type of experiment: cell-based. The procedure: For the cell proliferation assay, normal human dermal fibroblasts (NHDF) were exposed for 3 hours to conditioned ageing medium containing H2O2 (500 μM). After the incubation period, the medium was replaced with fresh medium containing composition A according to the invention at different concentrations for 96 hours. Epidermal growth factor (EGF, 20 ng/ml) was included as positive control and NHDF without pretreatment in H2O2 as non-aged control (Control). Cell viability was quantified using the MTT assay.

On to Epidermal growth factor [EGF], for which the “increase in cell viability compared to the aged control” value is “+22.9%”.

For the origin of these results see US20250205135A1, “COMPOSICION DE EXTRACTOS VEGETALES PARA PALIAR LOS EFECTOS DEL ENVEJECIMIENTO O RETRASO DE LA SENESCENCIA CELULAR” (MONTELOEDER S.L., priority 2022, published 2025).
